Experimental data: patent US20040242452A1, “Perfume composition” (priority 2001, published 2004)
Entries after “also recorded” stand apart in the source; their conditions may differ.

Test system: not given
Assay: not given
Details: disclosed in Japanese Patent Application Laid-Open (kokai) No. 6-172781; also through inhalation of vaporized perfume; cited from earlier work
For `COc1cc(C)cc(OC)c1` [DMMB, 1,3-dimethoxy-5-methylbenzene, reference compound], the sedative effect is listed as “has a sedative effect”.

Test system: healthy female panelists
Assay: not given
Details: already reported; humans; caffeine perorally administered, nitrazepam allowed to be inhaled; cited from earlier work
For `O=C1CN=C(c2ccccc2)c2cc([N+](=O)[O-])ccc2N1` [nitrazepam], the CNV amplitude change is given as “decreases”.
In the case of `Cn1c(=O)c2c(ncn2C)n(C)c1=O` [caffeine], the CNV amplitude change is listed as “increases”.

Test system: healthy female panelists
Assay: CNV test (contingent negative variation) with inhaled scent samples
Assay type: in vivo, human
Details: 0.05% ethanol solution of each component, solo or combined; five healthy female adult panelists
From the text: The psycho-sedative effect was investigated by measuring negative changes in electric potential, so-called contingent negative variation (CNV). CNV is known to be a slow cerebral potential variation which relates to psychological processes such as alertness, expectation, and anticipation and to changes in the level of consciousness.
In order to screen out a compound having a psycho-sedative or psycho-stimulative effect, a light signal which indicates start of movement is emitted two seconds after stimulation with a warning sound, and a panelist is required to react (i.e., push a button) simultaneously with the recognition of the light. During repetition of a series of such processes, an aromatic product sample is arranged about 10 cm under the nose of the panelist so that its scent can be acknowledged with breathing. An electrode for the measurement of CNV is set on the forehead of the panelist so as to record electric potential between the forehead and an earlobe. It has already been reported that the CNV amplitude increases when caffeine having an arousal effect is perorally administered to humans, whereas the amplitude decreases when nitrazepam having a sedative effect is allowed to be […].
In this test, the psycho-sedative effect was evaluated by use of the percentage as an index. A relative area of 100% or less indicates a sedative effect, and a relative area of 100% or more indicates an arousal effect.
Five healthy female panelists were subjected to the aforementioned CNV test.
Five healthy female adult panelists were subjected to the aforementioned CNV test.
(B) The following samples were prepared: a 1% ethanol solution of perilla aldehyde (commercial product); a 1% ethanol solution of perilla alcohol (commercial product); a 1% ethanol solution of DMMB (commercial product); and a 1% ethanol solution of lemon oil (commercial product). Five healthy female adult panelists were subjected to the aforementioned CNV test.
The following samples were prepared: a 0.05% ethanol solution of solo perilla aldehyde (1); a 0.05% ethanol solution of solo perilla alcohol (2); and an ethanol solution containing perilla aldehyde (0.05%) and perilla alcohol (0.05%) (3). Five healthy female adult panelists were subjected to the aforementioned CNV test.
With `C=C(C)C1CC=C(C=O)CC1` (centres unmarked) [perilla aldehyde, dihydrocuminyl aldehyde] the “synergistic psycho-stimulative effect by measured CNV values (FIG. 4)” value was “acknowledged to have a psycho-stimulative effect”.

Same assay, conditions: 1% ethanol solution, scent inhaled about 10 cm under the nose; five healthy female panelists; CNV area relative to blank (100%): 100% or less sedative, 100% or more arousal
In the case of `CC(=O)/C(C)=C/C1C(C)=CCCC1(C)C` (centres unmarked) [γ-methyl ionone], the “psycho-sedative / psycho-stimulative effect by measured CNV values (FIG. 1)” value is reported as “psycho-sedative effect similar to that of DMMB”.
In the case of terpinyl butyrate, the “psycho-sedative / psycho-stimulative effect by measured CNV values (FIG. 1)” value is reported as “psycho-sedative effect similar to that of DMMB”.
In the case of `C=CC(C)=CCC=C(C)C` [ocimene], the “psycho-sedative / psycho-stimulative effect by measured CNV values (FIG. 1)” value is reported as “psycho-sedative effect similar to that of DMMB”.
With `CC(C)=CCCC(C)CCO` (centres unmarked) [citronellol] the “psycho-sedative / psycho-stimulative effect by measured CNV values (FIG. 1)” value was “psycho-sedative effect similar to that of DMMB”.
For `CC(C)(O)CCCC1=CCC(C=O)CC1` (centres unmarked) [lyral], the “psycho-sedative / psycho-stimulative effect by measured CNV values (FIG. 1)” value was “psycho-sedative effect similar to that of DMMB”.
With `CC(C)=CCC/C(C)=C\CO` [nerol] the “psycho-sedative / psycho-stimulative effect by measured CNV values (FIG. 1)” value was “psycho-sedative effect similar to that of DMMB”.
With `C=C(C)[C@H]1CC=C(C)CC1` [limonene] the “psycho-sedative / psycho-stimulative effect by measured CNV values (FIG. 1)” value was “psycho-sedative effect similar to that of DMMB”.
For `CCCCCC1C(=O)CCC1CC(=O)OC` (centres unmarked) [hedione, methyl dihydrojasmonate], the “psycho-sedative / psycho-stimulative effect by measured CNV values (FIG. 1)” value was “psycho-sedative effect similar to that of DMMB”.
For `Cc1ccc(CC=O)cc1` [p-methylphenylacetaldehyde], the “psycho-sedative / psycho-stimulative effect by measured CNV values (FIG. 1)” value was “psycho-sedative effect similar to that of DMMB”.
For `COC(=O)c1ccc(OC)cc1` [methyl anisate], the “psycho-sedative / psycho-stimulative effect by measured CNV values (FIG. 1)” value was “psycho-sedative effect similar to that of DMMB”.
In the case of `C=CC(C)(CCC=C(C)C)OC(C)=O` (centres unmarked) [linalyl acetate], the “psycho-sedative / psycho-stimulative effect by measured CNV values (FIG. 1)” value is reported as “psycho-sedative effect similar to that of DMMB”.
In the case of `CC(C=O)Cc1ccc(C(C)(C)C)cc1` (centres unmarked) [lilial], the “psycho-sedative / psycho-stimulative effect by measured CNV values (FIG. 1)” value is reported as “psycho-sedative effect similar to that of DMMB”.
In the case of `CC/C=C\CCOC(=O)c1ccccc1O` [Z-3-hexenyl salicylate, cis-3-hexenyl salicylate], the “psycho-sedative / psycho-stimulative effect by measured CNV values (FIG. 1)” value is reported as “psycho-sedative effect similar to that of DMMB”.
For `OCCc1ccccc1` [β-phenylethyl alcohol], the “psycho-sedative / psycho-stimulative effect by measured CNV values (FIG. 1)” value was “psycho-sedative effect similar to that of DMMB”.
For `CCC1CCC(=O)O1` (centres unmarked) [γ-hexalactone], the “psycho-sedative / psycho-stimulative effect by measured CNV values (FIG. 1)” value was “psycho-sedative effect similar to that of DMMB”.
With `CC=Cc1ccc(OC(C)=O)c(OC)c1` [acetyl isoeugenol, methoxy-4-acetoxypropenylbenzene] the “psycho-sedative / psycho-stimulative effect by measured CNV values (FIG. 1)” value was “psycho-sedative effect similar to that of DMMB”.
For `CC(C=O)Cc1ccc2c(c1)OCO2` (centres unmarked) [helional], the “psycho-sedative / psycho-stimulative effect by measured CNV values (FIG. 1)” value was “psycho-sedative effect similar to that of DMMB”.
For `CC(=O)OC/C=C(\C)CCC=C(C)C` [geranyl acetate], the “psycho-sedative / psycho-stimulative effect by measured CNV values (FIG. 1)” value was “psycho-sedative effect similar to that of DMMB”.
In the case of `C=CC(C)(O)CCC=C(C)C` (centres unmarked) [linalool], the “psycho-sedative / psycho-stimulative effect by measured CNV values (FIG. 1)” value is reported as “psycho-sedative effect similar to that of DMMB”.
In the case of `CC(=O)C1(C)CC2=C(CCCC2(C)C)CC1C` (centres unmarked) [Iso E Super], the “psycho-sedative / psycho-stimulative effect by measured CNV values (FIG. 1)” value is reported as “psycho-sedative effect similar to that of DMMB”.
For `CCCCCC1CCC(=O)O1` (centres unmarked) [γ-nonalactone], the “psycho-sedative / psycho-stimulative effect by measured CNV values (FIG. 1)” value was “psycho-sedative effect similar to that of DMMB”.
For `CC1=CCC2C(=O)C1C2(C)C` (centres unmarked) [chrysanthenone], the “psycho-sedative / psycho-stimulative effect by measured CNV values (FIG. 1)” value was “psycho-sedative effect similar to that of DMMB”.
In the case of `CC(C)=CCC/C(C)=C/CO` [geraniol], the “psycho-sedative / psycho-stimulative effect by measured CNV values (FIG. 1)” value is reported as “psycho-sedative effect similar to that of DMMB”.

Same assay, conditions: 1% ethanol solution; five healthy female adult panelists; CNV area relative to blank (100%)
For `CCCCCCCCCCCCCC(=O)OCC` [ethyl myristate, ethyl tetradecanoate], the “psycho-stimulative / psycho-sedative effect by measured CNV values (FIG. 2)” value was “psycho-stimulative effect similar to that of limone oil”.
For `CC(C)c1ccc(CO)cc1` [cuminyl alcohol, 4-isopropylbenzyl alcohol], the “psycho-stimulative / psycho-sedative effect by measured CNV values (FIG. 2)” value was “psycho-stimulative effect similar to that of limone oil”.
For `CC1=C2CCC(C)CC2OC1=O` (centres unmarked) [menthalactone, 3,6-dimethyl-5,6,7,7a-tetrahydro-2(4H)-benzofuranone], the “psycho-stimulative / psycho-sedative effect by measured CNV values (FIG. 2)” value was “psycho-stimulative effect similar to that of limone oil”.
With `C/C=C(/C)C(=O)OCCC(C)C` [isoamyl angelate, isoamyl(Z)-2-methyl-2-butenoate] the “psycho-stimulative / psycho-sedative effect by measured CNV values (FIG. 2)” value was “psycho-stimulative effect similar to that of limone oil”.
In the case of `C/C=C(/C)C(=O)OCCc1ccccc1` [phenylethyl angelate, 2-phenylethyl(Z)-2-methyl-2-butenoate], the “psycho-stimulative / psycho-sedative effect by measured CNV values (FIG. 2)” value is reported as “psycho-stimulative effect similar to that of limone oil”.
In the case of `CC1=CC(=O)C(C(C)C)CC1` (centres unmarked) [piperitone, p-menth-1-en-3-one], the “psycho-stimulative / psycho-sedative effect by measured CNV values (FIG. 2)” value is reported as “psycho-stimulative effect similar to that of limone oil”.
In the case of `C=C(C)C1CC=C(C=O)CC1` (centres unmarked) [perilla aldehyde, dihydrocuminyl aldehyde], the “psycho-stimulative effect by measured CNV values (FIG. 3)” value is reported as “acknowledged to have a psycho-stimulative effect; also recorded: remarkably strong psycho-stimulative effect as compared with lemon oil”.
In the case of `COc1cc(C)cc(OC)c1` [DMMB, 1,3-dimethoxy-5-methylbenzene, reference compound], the “psycho-stimulative / psycho-sedative effect by measured CNV values (FIG. 2)” value is reported as “psycho-sedative effect of DMMB was confirmed”.
